Assay results as given in publication PMC12686497, “Exploring neurokinin-1 receptor antagonism for depression with structurally differentiated inhibitors” (Experimental & Molecular Medicine, 2025).

Key:
[1] = system: IL-1β, TNF-α and IL-6 mRNA; experiment: qRT-PCR of proinflammatory cytokine mRNA in frontal cortex and hippocampus, LPS model; type: in vivo, C57BL/6 mice; details: 10 mg/kg i.p., 4 h after LPS, vs LPS-treated group
Protocol: (§1) The ligands were dissolved at a dose of 10 mg/kg in the vehicle (10% dimethyl sulfoxide and 10% Kolliphor in 0.9% saline) and intraperitoneally injected into each animal in experimental groups.
(§2) To generate the lipopolysaccharide (LPS) model, 0.25 mg/kg of LPS from E. coli O26:B6 (Sigma, L3755) was dissolved in 0.9% saline and injected intraperitoneally. The control group was treated with 0.9% saline instead of LPS injection. The mice received injections of either vehicle, compound #1, compound #15 or Aprepitant (Tocris Bioscience) on day 1, 1 h before LPS injection and on day 2.
Four hours after LPS injection, the frontal lobe and hippocampus were isolated from the animal brain and placed in TRIzol solution (Ambion). Total RNA sample (2 μg) was reverse-transcribed into cDNA using Moloney Murine Leukemia Virus reverse transcriptase (M-MLV RT; Promega) and oligo (dT) primer (Novagen). Quantitative reverse transcription polymerase chain reaction (qRT–PCR), which quantifies gene expression levels, was performed using 0.5 μg of the reverse-transcription generated cDNA and specific primer sets (Supplementary Table 3). PCR amplification with iQ SYBR Green Supermix was performed in triplicate using the CFX96 Touch-Time System (Bio-Rad). The final products of qRT–PCR were electrophoresed on 2% agarose gels and visualized with SafeView Nucleic Acid Stain (G108, Applied Biological Materials). Cycle threshold (Ct) values at which the fluorescent signal exceeded the background were determined by qRT–PCR, and expression values for each gene were normalized to expression values of GAPDH. Relative quantification to calculate fold change was performed using the comparative Ct method (ΔΔCt).

[2] = system: LPS-induced depressive-like behavior; experiment: Tail suspension test (TST) in LPS model; type: in vivo, C57BL/6 mice; details: 10 mg/kg i.p., vs LPS-treated group
Protocol: as §1, §2
On day 4 after LPS administration, the tail suspension test (TST) was conducted. A four-chamber apparatus divided by nontransparent acrylic partitions was used, and the mice were suspended in each chamber by the tail. A video was recorded for 6 min, and the last 4 min were manually scored for immobility time.

[3] = molecular target: T1, NK1R (hTACR1-HEK293 cells) (Homo sapiens, UniProt P25103); experiment: FLIPR calcium 6 assay, SP-induced intracellular calcium mobilization; type: cell-based; details: 1 nM SP
T1 construct: expressed in transfected cells; host or cells: HEK293
Protocol: The following day, the cells were loaded with the FLIPR calcium 6 dye mixed at 1:1 to medium with 2.5 mM probenecid. The assay plate was wrapped with aluminum foil and incubated for 2 h at 37 °C in a humidified CO2 incubator. Each concentration of chemicals was dissolved in 1× Hank’s Balanced Salt Solution (plus 20 mM HEPES buffer, pH 7.4) and added to the well. The plate was incubated for 30 min at 37 °C before measuring. The final concentration of dimethyl sulfoxide was 0.5% in each well. Then, 1 nM SP-induced intracellular calcium mobilization was examined by monitoring the fluorescence intensity (excitation at 485 nm, emission at 525 nm, cutoff filter set at 515 nm) using a Flex Station 3 multimode microplate reader. Changes in fluorescence signal after SP addition were normalized to its starting signal and denoted as F/F0.

[4] = system: RS-induced despair-like behavior; experiment: Forced swim test (FST) in restraint stress (RS) model; type: in vivo, C57BL/6 mice; details: 10 mg/kg i.p. day 11 to 20
Protocol: as §1
To induce depressive-like behaviors in mice, restraint stress (RS) was applied using 50-ml conical tubes with many holes for 20 days, 2 h per day. From day 11 to 20, mice received injections of either vehicle or compound #15.
(§3) On day 21 in the RS model and day 12 in the SI model, the forced swim test (FST) was performed. During each trial, mice were placed in a test cylinder (diameter 15 cm, height 25 cm) filled with water regulated at 25 ± 1 °C, and a video was recorded for 6 min. Immobility time was manually scored during the last 4 min of each trial.

[5] = system: SI-induced despair-like behavior; experiment: Forced swim test (FST) in social isolation (SI) stress model; type: in vivo, C57BL/6 mice; details: 10 mg/kg i.p. day 6 to 13
Protocol: as §1
To generate the social isolation (SI) stress model, the animals were single-caged for 14 days. From day 6 to 13, mice received injections of either vehicle or compound #15.
as §3

T1 sequence (P25103 whole entry): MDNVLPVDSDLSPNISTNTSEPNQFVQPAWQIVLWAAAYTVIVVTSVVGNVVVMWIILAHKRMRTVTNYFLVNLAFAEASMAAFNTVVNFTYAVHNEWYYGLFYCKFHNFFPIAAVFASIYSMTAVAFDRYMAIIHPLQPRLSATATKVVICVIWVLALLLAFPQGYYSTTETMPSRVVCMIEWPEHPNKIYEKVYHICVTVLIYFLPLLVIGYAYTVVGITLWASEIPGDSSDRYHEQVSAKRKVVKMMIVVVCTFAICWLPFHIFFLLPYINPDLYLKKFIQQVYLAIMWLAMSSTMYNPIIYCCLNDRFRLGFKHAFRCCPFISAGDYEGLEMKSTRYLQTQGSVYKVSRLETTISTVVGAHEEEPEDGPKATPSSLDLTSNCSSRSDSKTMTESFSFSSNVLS

NK1R antagonistic / inhibitory activity (in words) [3]	Compound	IL-6 mRNA level ([1]; frontal cortex)	TNF-α mRNA level ([1]; frontal cortex)	IL-1β mRNA level ([1]; hippocampus)	IL-6 mRNA level ([1]; hippocampus)	TNF-α mRNA level ([1]; hippocampus)	immobility time in TST [2]	also measured
	C[C@@H](O[C@H]1OCCN(Cc2n[nH]c(=O)[nH]2)[C@H]1c1ccc(F)cc1)c1cc(C(F)(F)F)cc(C(F)(F)F)c1 [Aprepitant, reference compound]	significantly reduced	significantly reduced	significantly reduced	significantly reduced	significantly reduced	significant reduction in immobility time	
	COc1ccc(-c2[nH]c3ccc(F)cc3c2CCC(=O)NC(C)c2ccc(-n3cncn3)cc2)cc1 (stereo not shown) [#1]	significantly reduced	significantly reduced	significantly reduced	significantly reduced	significantly reduced	significant reduction in immobility time	IC50 (in words) [3]: single-digit micromolar
weaker inhibitory effects	COc1ccc(C(C)=O)cc1CC(=O)N(C)Cc1cc(Br)ccc1OC [#2]							
	Cc1ccc2[nH]c(-c3ccc(Br)cc3)c(CCC(=O)NC(c3ccc(C(C)C)cc3)C(C)C)c2c1 (stereo not shown) [#15]						significantly reduced immobility time	IC50 [3]: 79.5 nM; immobility time in FST [4]: notable reduction in immobility time; immobility time in FST [5]: notable reduction in immobility time
weaker inhibitory effects	Cc1cc(F)ccc1C1CCN(C(=O)NC2CCOC3(CCOC3)C2)CC1 (stereo not shown) [#3]							
